Target: T1, androgen receptor (AR) (Homo sapiens, UniProt P10275, T878A)
T1 construct: LNCaP cells expressing ARR2PB-FireflyLuc and CMV-RenillaLuc; endogenous in cells; host or cells: LNCaP cells carrying ARR2PB-FireflyLuc and CMV-RenillaLuc reporters
T1 sequence (P10275 1-920 T878A): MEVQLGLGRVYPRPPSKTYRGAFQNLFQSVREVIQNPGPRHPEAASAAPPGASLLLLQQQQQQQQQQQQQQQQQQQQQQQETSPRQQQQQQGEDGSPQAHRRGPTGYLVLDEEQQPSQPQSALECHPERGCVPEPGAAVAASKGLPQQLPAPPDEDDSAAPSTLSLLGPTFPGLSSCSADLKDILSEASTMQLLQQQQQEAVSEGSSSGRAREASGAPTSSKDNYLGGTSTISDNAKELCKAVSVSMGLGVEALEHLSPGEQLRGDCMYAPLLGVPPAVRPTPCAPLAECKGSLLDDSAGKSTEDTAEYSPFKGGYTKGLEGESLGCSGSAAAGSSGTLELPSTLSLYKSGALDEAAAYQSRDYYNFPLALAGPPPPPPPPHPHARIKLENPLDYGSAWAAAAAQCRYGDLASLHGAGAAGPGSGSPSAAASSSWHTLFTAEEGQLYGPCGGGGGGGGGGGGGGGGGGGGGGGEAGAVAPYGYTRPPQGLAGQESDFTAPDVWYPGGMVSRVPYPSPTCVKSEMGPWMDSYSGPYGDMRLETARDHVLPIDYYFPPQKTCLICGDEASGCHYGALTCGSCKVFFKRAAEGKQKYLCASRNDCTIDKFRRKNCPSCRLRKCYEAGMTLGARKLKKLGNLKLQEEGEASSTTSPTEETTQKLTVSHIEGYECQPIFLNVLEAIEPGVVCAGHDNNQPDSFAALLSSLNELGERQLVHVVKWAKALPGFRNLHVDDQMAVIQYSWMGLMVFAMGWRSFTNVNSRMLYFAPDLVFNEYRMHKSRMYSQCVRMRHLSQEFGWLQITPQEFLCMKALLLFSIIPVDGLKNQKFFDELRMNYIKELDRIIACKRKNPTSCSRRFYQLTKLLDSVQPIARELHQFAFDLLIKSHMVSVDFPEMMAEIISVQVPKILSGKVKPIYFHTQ
Assay: AR reporter assay in LNCaP cells expressing ARR2PB-FireflyLuc and CMV-RenillaLuc, antagonist mode (% remaining activity, IC50)
Format: cell-based
Conditions: 48 h at 37° C., class symbols A-D, read-out: IC50
Experimental: LNCaP cells expressing ARR2PB-FireflyLuc and CMV-RenillaLuc were treated with indicated concentrations of test compounds, enzalutamide (negative control), or DHT (positive control)+/−0.5 nM DHT for 48 h at 37° C. […] Remaining activity (antagonist mode) was calculated as % Remaining Activity=100×[(Readsample−LCave)/(HCave−LCave)] where HC is cells treated with 0.5 nM DHT only and LC is cells treated with 10 uM enzalutamide+0.5 nM DHT. Activation (agonist mode) was calculated as % Activation=100×[(ReadSample−LCave)/(HCave−LCave)] where HC is cells treated with 1 uM DHT and LC is cells treated with DMSO. Dose response curves and IC50 values were calculated using non-linear regression analysis in XLfit.
The designation “A” indicates an IC50 value of >10 μM, “B” indicates an IC50 value between 1 μM and 10 μM; “C” indicates an IC50 value between 100 nM and 1 μM; and “D” indicates an IC50 value of less than 100 nM.

SMILES	IC50
c1ccc2nc(-c3n[nH]c4ccc(N5CCOCC5)cc34)ccc2c1 [Compound 1]	1000 to 10000 nM
c1ccc2nc(-c3n[nH]c4cc(N5CCOCC5)ccc34)ccc2c1 [Compound 2]	> 10000 nM
CN(C)c1ccc2c(-c3ccc4ccccc4n3)n[nH]c2c1 [Compound 4]	> 10000 nM
O=c1ccc2nc(-c3n[nH]c4ccccc34)ccc2[nH]1 [Compound 6]	1000 to 10000 nM
c1ccc2c(-c3ccc4cnccc4n3)n[nH]c2c1 [Compound 7]	100 to 1000 nM
c1ccc2c(-c3ccc4ccncc4n3)n[nH]c2c1 [Compound 8]	< 100 nM
c1ccc2c(-c3ccc4c(n3)CCCN4)n[nH]c2c1 [Compound 9]	100 to 1000 nM
CN1CCOc2nc(-c3n[nH]c4ccccc34)ccc21 [Compound 10]	> 10000 nM
Fc1cc2[nH]nc(-c3ccc4c(n3)CCCN4)c2cc1F [Compound 11]	100 to 1000 nM
CN1CCOc2nc(-c3n[nH]c4cc(F)c(F)cc34)ccc21 [Compound 13]	1000 to 10000 nM
Fc1cc2[nH]nc(-c3cc4ccccc4nn3)c2cc1F [Compound 14]	> 10000 nM
COc1ccc2nc(-c3n[nH]c4ccccc34)ccc2n1 [Compound 16]	> 10000 nM
Cn1c(=O)ccc2nc(-c3n[nH]c4ccccc34)ccc21 [Compound 17]	1000 to 10000 nM
Cn1ccc2nc(-c3n[nH]c4ccccc34)ccc2c1=O [Compound 18]	1000 to 10000 nM
c1ccc2c(-c3ccc4c(n3)CNCC4)n[nH]c2c1 [Compound 20]	> 10000 nM
NC1CCCc2nc(-c3n[nH]c4ccccc34)ccc21 (stereo not shown) [Compound 22]	> 10000 nM
CC(=O)NC1CCCc2nc(-c3n[nH]c4ccccc34)ccc21 (stereo not shown) [Compound 23]	> 10000 nM
CC(=O)N1CCCc2nc(-c3n[nH]c4cc(F)c(F)cc34)ccc21 [Compound 25]	100 to 1000 nM
Fc1cc2[nH]nc(-c3ccnc4cccnc34)c2cc1F [Compound 27]	1000 to 10000 nM
O=c1[nH]ccc2nc(-c3n[nH]c4cc(F)c(F)cc34)ccc12 [Compound 28]	100 to 1000 nM
Fc1cc2[nH]nc(-c3ccc4c(n3)CCNC4)c2cc1F [Compound 30]	> 10000 nM
CC(=O)N1CCc2nc(-c3n[nH]c4cc(F)c(F)cc34)ccc2C1 [Compound 31]	> 10000 nM
Fc1cc2[nH]nc(-c3ccc4c(-c5nnco5)c(F)ccc4n3)c2cc1F [Compound 33]	100 to 1000 nM
Fc1cc2[nH]nc(-c3ccc4cc(F)c(-c5nnco5)cc4n3)c2cc1F [Compound 34]	> 10000 nM
Fc1cc2[nH]nc(-c3ccc4c(-c5nnco5)cccc4n3)c2cc1F [Compound 35]	< 100 nM
Fc1cc2[nH]nc(-c3ccc4c(n3)COCC4)c2cc1F [Compound 39]	1000 to 10000 nM

SMILES	IC50
Fc1cc2[nH]nc(-c3ccc4c(n3)CCOC4)c2cc1F [Compound 40]	1000 to 10000 nM
O=C1NCc2nc(-c3n[nH]c4cc(F)c(F)cc34)ccc21 [Compound 41]	1000 to 10000 nM
CN1Cc2nc(-c3n[nH]c4cc(F)c(F)cc34)ccc2C1=O [Compound 42]	1000 to 10000 nM
Cc1cc(F)cc2c(-c3ccc4c(n3)CCCN4)n[nH]c12 [Compound 43]	100 to 1000 nM
Cc1cc2[nH]nc(-c3ccc4c(n3)CCCN4)c2cc1F [Compound 44]	100 to 1000 nM
Cc1cc2c(-c3ccc4c(n3)CCCN4)n[nH]c2cc1F [Compound 45]	100 to 1000 nM
CC1CCNc2ccc(-c3n[nH]c4cc(F)c(F)cc34)nc21 (stereo not shown) [Compound 46]	< 100 nM
CC1CCNc2cnc(-c3n[nH]c4cc(F)c(F)cc34)cc21 (stereo not shown) [Compound 49]	1000 to 10000 nM
CC1NC(=O)c2ccc(-c3n[nH]c4cc(F)c(F)cc34)nc21 (stereo not shown) [Compound 51]	100 to 1000 nM
CCc1nc(-c2n[nH]c3cc(F)c(F)cc23)ccc1N [Compound 54]	100 to 1000 nM
c1ccc2c(-c3cnc4c(c3)NCCC4)n[nH]c2c1 [Compound 57]	> 10000 nM
Fc1cc2[nH]nc(-c3cnc4c(n3)CCCN4)c2cc1F [Compound 58]	> 10000 nM
Cc1cc(-c2n[nH]c3cc(F)c(F)cc23)nc2c1NCCC2 [Compound 59]	100 to 1000 nM
CC1(C)CCNc2cnc(-c3n[nH]c4cc(F)c(F)cc34)cc21 [Compound 60]	> 10000 nM
FC(F)(F)c1ccc(-c2n[nH]c3ccccc23)nc1 [Compound 61]	1000 to 10000 nM
Fc1ccc(-c2n[nH]c3ccccc23)nc1 [Compound 62]	1000 to 10000 nM
N#Cc1cccc2c(-c3ccc4ccc(F)cc4n3)n[nH]c12 [Compound 63]	< 100 nM
c1ccc2c(-c3ccc(N4CCNCC4)cn3)n[nH]c2c1 [Compound 64]	> 10000 nM
CN1CCN(c2ccc(-c3n[nH]c4ccccc34)nc2)CC1 [Compound 65]	> 10000 nM
Fc1cc2[nH]nc(-c3ccc4c(n3)OCCN4)c2cc1F [Compound 69]	> 10000 nM
CC1CNc2ccc(-c3n[nH]c4cc(F)c(F)cc34)nc2O1 (stereo not shown) [Compound 70]	> 10000 nM
CC1(C)NCc2ccc(-c3n[nH]c4cc(F)c(F)cc34)nc21 [Compound 71]	> 10000 nM
CC(C)(O)c1ccc(-c2n[nH]c3cc(F)c(F)cc23)nc1 [Compound 72]	> 10000 nM
CC(C)(O)c1ccc(-c2n[nH]c3cc(F)c(F)cc23)cn1 [Compound 73]	> 10000 nM
Fc1cc2[nH]nc(-c3ccc4c(n3)NCCO4)c2cc1F [Compound 74]	1000 to 10000 nM
CN1CCOc2ccc(-c3n[nH]c4cc(F)c(F)cc34)nc21 [Compound 75]	1000 to 10000 nM

Further lines, results first:

IC50	SMILES
100 to 1000 nM	CC1CCNc2ccc(-c3n[nH]c4cc(F)c(F)cc34)nc21 (single isomer, unassigned) [Compound 47]
< 100 nM	CC1CCNc2ccc(-c3n[nH]c4cc(F)c(F)cc34)nc21 (single isomer, unassigned) [Compound 48]
> 10000 nM	CN(C)c1ccc2[nH]nc(-c3ccc4ccccc4n3)c2c1 [Compound 3]
< 100 nM	c1cnc2ccc(-c3n[nH]c4ccccc34)nc2c1 [Compound 5]
< 100 nM	COc1nccc2nc(-c3n[nH]c4ccccc34)ccc12 [Compound 12]
< 100 nM	Cc1nccc2nc(-c3n[nH]c4ccccc34)ccc12 [Compound 19]
> 10000 nM	CC(=O)N1CCc2ccc(-c3n[nH]c4ccccc34)nc2C1 [Compound 21]
1000 to 10000 nM	CN1CCCc2nc(-c3n[nH]c4cc(F)c(F)cc34)ccc21 [Compound 24]
< 100 nM	Fc1cc2[nH]nc(-c3ccc4ncccc4n3)c2cc1F [Compound 26]
> 10000 nM	Cn1ccc2nc(-c3n[nH]c4cc(F)c(F)cc34)ccc2c1=O [Compound 29]
> 10000 nM	Fc1cc2[nH]nc(-c3ccc4c(n3)CNCC4)c2cc1F [Compound 32]
1000 to 10000 nM	O=C(CO)N1CCCc2nc(-c3n[nH]c4cc(F)c(F)cc34)ccc21 [Compound 36]
> 10000 nM	COCC(=O)N1CCCc2nc(-c3n[nH]c4cc(F)c(F)cc34)ccc21 [Compound 37]
1000 to 10000 nM	CNC(=O)N1CCCc2nc(-c3n[nH]c4cc(F)c(F)cc34)ccc21 [Compound 38]
100 to 1000 nM	CC1(C)CCNc2ccc(-c3n[nH]c4cc(F)c(F)cc34)nc21 [Compound 50]
100 to 1000 nM	CC1(C)NC(=O)c2ccc(-c3n[nH]c4cc(F)c(F)cc34)nc21 [Compound 52]
1000 to 10000 nM	Cc1nc(-c2n[nH]c3cc(F)c(F)cc23)ccc1N [Compound 53]
> 10000 nM	Fc1cc2[nH]nc(-c3ncc4c(n3)CCCN4)c2cc1F [Compound 55]
1000 to 10000 nM	Fc1cc2[nH]nc(-c3cc4c(cn3)NCCC4)c2cc1F [Compound 56]
> 10000 nM	c1ccc2c(-c3cc(N4CCNCC4)ccn3)n[nH]c2c1 [Compound 66]
> 10000 nM	CN1CCN(c2ccnc(-c3n[nH]c4ccccc34)c2)CC1 [Compound 67]
> 10000 nM	CN1CCN(c2cccc(-c3n[nH]c4ccccc34)n2)CC1 [Compound 68]
1000 to 10000 nM	CC(C)N1CCOc2ccc(-c3n[nH]c4cc(F)c(F)cc34)nc21 [Compound 76]
100 to 1000 nM	CC1(C)CCNc2ccc(-c3n[nH]c4ccccc34)nc21 [Compound 77]
